From patent US9610234B2, “Combinations of alkylamidothiazoles and preservatives” (Beiersdorf AG, priority 2013, dated 2017)

Molecular target: T1, human tyrosinase (Homo sapiens, UniProt P14679)
T1 sequence (P14679 19-529): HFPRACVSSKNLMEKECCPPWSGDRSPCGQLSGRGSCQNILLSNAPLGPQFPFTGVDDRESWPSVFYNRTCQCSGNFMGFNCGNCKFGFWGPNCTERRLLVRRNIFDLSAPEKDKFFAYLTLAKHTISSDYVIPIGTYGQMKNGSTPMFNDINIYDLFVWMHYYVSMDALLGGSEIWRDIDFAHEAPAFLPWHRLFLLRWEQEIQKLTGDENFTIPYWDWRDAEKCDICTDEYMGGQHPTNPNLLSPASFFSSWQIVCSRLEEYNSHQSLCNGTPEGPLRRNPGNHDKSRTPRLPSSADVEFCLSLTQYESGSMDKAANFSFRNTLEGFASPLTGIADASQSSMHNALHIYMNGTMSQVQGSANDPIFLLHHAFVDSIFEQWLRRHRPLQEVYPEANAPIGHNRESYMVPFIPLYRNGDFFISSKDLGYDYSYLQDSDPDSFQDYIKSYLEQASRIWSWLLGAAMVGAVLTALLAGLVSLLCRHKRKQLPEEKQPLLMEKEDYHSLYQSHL
Test: Enzyme test: conversion of L-DOPA to L-dopaquinone by human tyrosinase (MBTH, absorption at 490 nm)
Assay type: biochemical
Conditions: tyrosinase activity
Procedure: Method Description of the Effectiveness Investigations:
In this literature-known method (Winder, A. J. and Harris, H., New assays for the tyrosine hydroxylase and dopa oxidase activities of tyrosinase. Eur. J. Biochem. (1991), 198, 317-26), the reaction product L-dopaquinone is reacted with MBTH (3-methyl-2-benzothiazoline hydrazone) to give a pink-colored substance, the increase of which is measured over time by absorption at 490 nm. […] It can be concluded from this that the substances according to the invention are extremely effective pigmentation-inhibiting substances.

Row | Compound | Inhibition (% of the control) (concentration 0.4 μg/mL) | Inhibition (% of the control) (concentration 200 μg/mL)
1 | CC(C)C(=O)Nc1nc(-c2ccc(O)cc2O)cs1 [N-(4-(2,4-dihydroxyphenyl)thiazol-2-yl)isobutyramide] | 38.2 % of the control | –
2 | C/C=C/C=C/C(=O)[O-].[K+] [Potassium sorbate] | – | 42.0 % of the control
3 | O=C([O-])c1ccccc1.[Na+] [Sodium benzoate] | – | 43.6 % of the control
